Values after ≈ are worked out from the molar mass of the structure shown.
Experiments:
[1] = target: T1, Serine/threonine-protein kinase Chk1 (Homo sapiens, UniProt O14757); experiment: Inhibition of Chk1
T1 sequence (O14757 whole entry): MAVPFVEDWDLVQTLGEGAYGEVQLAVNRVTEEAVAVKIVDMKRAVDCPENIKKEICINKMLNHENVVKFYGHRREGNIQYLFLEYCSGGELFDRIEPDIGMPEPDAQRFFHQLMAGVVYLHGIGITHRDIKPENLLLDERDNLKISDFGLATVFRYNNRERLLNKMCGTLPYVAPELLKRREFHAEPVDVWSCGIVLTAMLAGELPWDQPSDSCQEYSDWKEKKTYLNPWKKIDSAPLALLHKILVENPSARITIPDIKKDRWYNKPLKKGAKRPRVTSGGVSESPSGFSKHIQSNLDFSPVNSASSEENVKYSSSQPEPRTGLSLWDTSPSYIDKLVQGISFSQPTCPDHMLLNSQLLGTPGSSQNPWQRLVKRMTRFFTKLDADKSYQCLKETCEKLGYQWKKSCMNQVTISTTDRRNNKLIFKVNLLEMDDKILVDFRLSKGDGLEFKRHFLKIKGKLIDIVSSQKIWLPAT

[2] = target: Serine/threonine-protein kinase Chk2 (Homo sapiens, UniProt O96017); experiment: Inhibition of Chk2
[3] = Inhibition of CK2
[4] = target: Glycogen synthase kinase-3 beta (Homo sapiens, UniProt P49841); experiment: Inhibition of Gsk3beta
[5] = target: T2, Inhibitor of nuclear factor kappa-B kinase subunit epsilon (Homo sapiens, UniProt Q14164); experiment: Inhibition of IKKi
T2 sequence (Q14164 whole entry): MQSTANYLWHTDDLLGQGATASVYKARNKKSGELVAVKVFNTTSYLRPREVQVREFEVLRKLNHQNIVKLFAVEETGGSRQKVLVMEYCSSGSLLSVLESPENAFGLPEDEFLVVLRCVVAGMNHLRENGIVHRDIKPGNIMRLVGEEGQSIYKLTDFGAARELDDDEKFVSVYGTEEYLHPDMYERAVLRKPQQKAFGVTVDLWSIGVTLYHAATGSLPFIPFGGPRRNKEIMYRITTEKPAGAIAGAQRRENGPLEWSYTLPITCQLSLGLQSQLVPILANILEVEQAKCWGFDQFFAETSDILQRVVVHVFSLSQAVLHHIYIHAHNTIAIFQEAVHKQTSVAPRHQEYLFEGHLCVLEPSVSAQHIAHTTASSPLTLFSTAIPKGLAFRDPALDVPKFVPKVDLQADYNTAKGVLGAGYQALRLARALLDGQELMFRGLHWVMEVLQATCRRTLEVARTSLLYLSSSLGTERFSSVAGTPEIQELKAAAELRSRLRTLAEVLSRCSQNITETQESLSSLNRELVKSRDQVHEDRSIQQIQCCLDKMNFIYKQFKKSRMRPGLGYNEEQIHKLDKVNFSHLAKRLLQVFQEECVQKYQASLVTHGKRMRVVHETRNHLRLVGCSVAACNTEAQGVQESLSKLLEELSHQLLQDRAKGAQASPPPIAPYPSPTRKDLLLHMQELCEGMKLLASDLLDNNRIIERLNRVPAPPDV

[6] = target: Tyrosine-protein kinase Lck (Homo sapiens, UniProt P06239); experiment: Inhibition of Lck
[7] = target: MAP kinase-activated protein kinase 2 (Homo sapiens, UniProt P49137); experiment: Inhibition of MAPKAP-2
[8] = target: Serine/threonine-protein kinase PAK 4 (Homo sapiens, UniProt O96013); experiment: Inhibition of Pak4
[9] = target: Serine/threonine-protein kinase pim-2 (Homo sapiens, UniProt Q9P1W9); experiment: Inhibition of Pim-2
[10] = Inhibition of p38
[11] = target: Fibroblast growth factor receptor 1 (Homo sapiens, UniProt P11362); experiment: Inhibition of FGFR1
[12] = Inhibition of PKA
[13] = target: Hepatocyte growth factor receptor (Homo sapiens, UniProt P08581); experiment: Inhibition of HGFR
[14] = target: T3, Tyrosine-protein kinase Mer (Homo sapiens, UniProt Q12866); experiment: Inhibition of Mer
T3 sequence (Q12866 whole entry): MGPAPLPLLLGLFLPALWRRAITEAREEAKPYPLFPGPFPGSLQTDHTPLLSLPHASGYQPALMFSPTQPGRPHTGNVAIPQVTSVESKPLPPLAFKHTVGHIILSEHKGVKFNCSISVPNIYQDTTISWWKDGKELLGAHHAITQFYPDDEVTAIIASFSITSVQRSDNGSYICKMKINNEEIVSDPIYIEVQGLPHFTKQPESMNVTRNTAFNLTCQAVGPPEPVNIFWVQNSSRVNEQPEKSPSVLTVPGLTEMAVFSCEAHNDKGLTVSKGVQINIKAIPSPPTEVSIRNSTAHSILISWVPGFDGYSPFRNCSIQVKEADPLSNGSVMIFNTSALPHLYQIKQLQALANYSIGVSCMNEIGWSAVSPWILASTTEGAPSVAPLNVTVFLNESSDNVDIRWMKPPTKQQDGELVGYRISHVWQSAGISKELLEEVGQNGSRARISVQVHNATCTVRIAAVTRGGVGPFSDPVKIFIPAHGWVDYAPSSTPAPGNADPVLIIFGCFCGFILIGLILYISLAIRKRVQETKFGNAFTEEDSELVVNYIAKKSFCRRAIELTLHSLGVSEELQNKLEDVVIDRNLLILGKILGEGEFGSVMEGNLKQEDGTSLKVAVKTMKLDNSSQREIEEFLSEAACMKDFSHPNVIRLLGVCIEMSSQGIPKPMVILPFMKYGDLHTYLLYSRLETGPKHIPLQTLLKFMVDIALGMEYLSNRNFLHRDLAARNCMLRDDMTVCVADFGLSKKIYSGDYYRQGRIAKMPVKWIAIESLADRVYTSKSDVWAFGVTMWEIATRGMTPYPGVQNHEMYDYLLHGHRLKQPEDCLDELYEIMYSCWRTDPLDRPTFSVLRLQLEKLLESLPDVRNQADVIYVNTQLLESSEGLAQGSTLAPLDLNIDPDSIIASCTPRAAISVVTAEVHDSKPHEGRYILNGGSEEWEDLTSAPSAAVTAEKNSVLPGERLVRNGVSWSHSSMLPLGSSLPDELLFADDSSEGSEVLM

[15] = target: Casein kinase I isoform delta (Homo sapiens, UniProt P48730); experiment: Inhibition of CK1delta
[16] = Aqueous solubility of compound at pH 6.5; assay type: physicochemical
[17] = Half life in human liver microsomes; assay type: ADME, Microsome
[18] = Half life in po dosed Sprague-Dawley rat; assay type: ADME, organism-based; conditions: in vivo
[19] = target: Mitogen-activated protein kinase 1 (Homo sapiens, UniProt P28482); experiment: Inhibition of Erk2
[20] = target: Serine/threonine-protein kinase Sgk1 (Homo sapiens, UniProt O00141); experiment: Inhibition of Sgk
[21] = target: High affinity nerve growth factor receptor (Homo sapiens, UniProt P04629); experiment: Inhibition of TrkA
[22] = target: Vascular endothelial growth factor receptor 2 (Homo sapiens, UniProt P35968); experiment: Inhibition of VEGFR2

Serine/threonine-protein kinase PAK 4, sequence (O96013 whole entry): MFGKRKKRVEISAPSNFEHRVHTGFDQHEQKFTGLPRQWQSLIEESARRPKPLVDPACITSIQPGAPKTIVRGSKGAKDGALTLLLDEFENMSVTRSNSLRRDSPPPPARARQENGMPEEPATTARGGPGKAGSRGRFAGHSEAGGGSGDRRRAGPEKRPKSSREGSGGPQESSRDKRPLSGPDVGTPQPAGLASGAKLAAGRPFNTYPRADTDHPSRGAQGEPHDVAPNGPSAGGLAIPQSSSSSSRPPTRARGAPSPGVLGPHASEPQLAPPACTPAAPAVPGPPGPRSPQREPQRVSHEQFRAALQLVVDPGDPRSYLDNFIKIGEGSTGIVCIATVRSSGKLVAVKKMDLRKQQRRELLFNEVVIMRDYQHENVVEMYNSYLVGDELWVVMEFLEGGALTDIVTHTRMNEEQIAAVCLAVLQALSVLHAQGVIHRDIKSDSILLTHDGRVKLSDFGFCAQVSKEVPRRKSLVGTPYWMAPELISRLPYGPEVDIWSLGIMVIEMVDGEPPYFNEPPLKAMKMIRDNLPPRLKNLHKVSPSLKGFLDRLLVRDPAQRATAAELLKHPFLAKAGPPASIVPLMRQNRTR
Fibroblast growth factor receptor 1, sequence (P11362 whole entry): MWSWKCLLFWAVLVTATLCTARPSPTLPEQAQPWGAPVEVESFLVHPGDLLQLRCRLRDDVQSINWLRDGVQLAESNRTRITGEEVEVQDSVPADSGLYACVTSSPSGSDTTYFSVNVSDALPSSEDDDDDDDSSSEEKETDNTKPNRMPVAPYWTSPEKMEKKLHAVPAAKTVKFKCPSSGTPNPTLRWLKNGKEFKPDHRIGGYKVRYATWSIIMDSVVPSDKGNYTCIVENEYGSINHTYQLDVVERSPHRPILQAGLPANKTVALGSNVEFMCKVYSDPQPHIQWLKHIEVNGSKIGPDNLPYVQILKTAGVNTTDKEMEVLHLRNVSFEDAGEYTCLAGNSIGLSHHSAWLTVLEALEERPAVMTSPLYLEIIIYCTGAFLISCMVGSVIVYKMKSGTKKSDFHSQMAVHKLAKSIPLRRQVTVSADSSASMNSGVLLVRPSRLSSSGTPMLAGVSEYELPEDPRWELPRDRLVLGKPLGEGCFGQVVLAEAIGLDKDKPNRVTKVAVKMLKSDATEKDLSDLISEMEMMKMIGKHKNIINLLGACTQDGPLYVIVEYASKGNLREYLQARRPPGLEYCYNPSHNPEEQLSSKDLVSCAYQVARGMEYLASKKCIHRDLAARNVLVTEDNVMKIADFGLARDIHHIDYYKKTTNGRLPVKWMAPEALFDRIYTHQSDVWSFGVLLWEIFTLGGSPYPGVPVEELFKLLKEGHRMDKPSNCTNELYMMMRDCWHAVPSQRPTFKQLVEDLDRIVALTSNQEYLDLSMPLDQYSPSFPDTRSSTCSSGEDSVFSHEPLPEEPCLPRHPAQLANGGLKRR
MAP kinase-activated protein kinase 2, sequence (P49137 whole entry): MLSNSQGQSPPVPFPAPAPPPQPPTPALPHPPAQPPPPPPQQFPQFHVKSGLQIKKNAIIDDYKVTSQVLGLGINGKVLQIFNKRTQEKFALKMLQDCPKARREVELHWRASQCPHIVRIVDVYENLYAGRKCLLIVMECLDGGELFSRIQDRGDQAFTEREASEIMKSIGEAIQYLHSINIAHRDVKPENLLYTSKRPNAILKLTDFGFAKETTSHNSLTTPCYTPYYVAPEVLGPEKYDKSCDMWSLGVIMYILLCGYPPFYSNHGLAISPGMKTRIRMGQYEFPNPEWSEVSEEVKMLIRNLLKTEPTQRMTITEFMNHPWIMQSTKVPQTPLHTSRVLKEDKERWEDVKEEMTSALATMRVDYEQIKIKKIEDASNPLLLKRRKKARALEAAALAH
Tyrosine-protein kinase Lck, sequence (P06239 whole entry): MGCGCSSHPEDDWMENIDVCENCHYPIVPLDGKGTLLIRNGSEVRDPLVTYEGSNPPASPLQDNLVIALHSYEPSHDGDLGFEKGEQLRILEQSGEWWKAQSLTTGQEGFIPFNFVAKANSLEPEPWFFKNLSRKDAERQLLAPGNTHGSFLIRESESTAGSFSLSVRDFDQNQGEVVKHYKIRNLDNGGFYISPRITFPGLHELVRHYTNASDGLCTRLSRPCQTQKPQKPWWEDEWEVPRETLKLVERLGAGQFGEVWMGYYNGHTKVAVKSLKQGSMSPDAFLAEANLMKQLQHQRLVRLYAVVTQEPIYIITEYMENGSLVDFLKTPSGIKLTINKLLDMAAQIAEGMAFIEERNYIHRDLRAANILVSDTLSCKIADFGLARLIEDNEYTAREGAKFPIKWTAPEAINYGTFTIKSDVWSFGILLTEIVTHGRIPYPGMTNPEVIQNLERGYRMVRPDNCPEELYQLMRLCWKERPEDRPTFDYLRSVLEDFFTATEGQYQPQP
Glycogen synthase kinase-3 beta, sequence (P49841 whole entry): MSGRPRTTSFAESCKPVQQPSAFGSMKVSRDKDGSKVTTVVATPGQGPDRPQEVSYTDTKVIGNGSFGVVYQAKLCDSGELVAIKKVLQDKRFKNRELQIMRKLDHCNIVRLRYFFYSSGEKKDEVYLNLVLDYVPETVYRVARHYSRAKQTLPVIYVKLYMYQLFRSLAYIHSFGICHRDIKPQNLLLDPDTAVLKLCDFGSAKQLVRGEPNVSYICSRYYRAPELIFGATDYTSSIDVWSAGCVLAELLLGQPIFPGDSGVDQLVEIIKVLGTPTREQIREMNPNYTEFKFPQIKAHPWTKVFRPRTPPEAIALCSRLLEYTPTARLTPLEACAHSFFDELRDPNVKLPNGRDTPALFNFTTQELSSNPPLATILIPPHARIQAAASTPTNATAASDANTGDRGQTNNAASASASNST
Casein kinase I isoform delta, sequence (P48730 whole entry, canonical isoform): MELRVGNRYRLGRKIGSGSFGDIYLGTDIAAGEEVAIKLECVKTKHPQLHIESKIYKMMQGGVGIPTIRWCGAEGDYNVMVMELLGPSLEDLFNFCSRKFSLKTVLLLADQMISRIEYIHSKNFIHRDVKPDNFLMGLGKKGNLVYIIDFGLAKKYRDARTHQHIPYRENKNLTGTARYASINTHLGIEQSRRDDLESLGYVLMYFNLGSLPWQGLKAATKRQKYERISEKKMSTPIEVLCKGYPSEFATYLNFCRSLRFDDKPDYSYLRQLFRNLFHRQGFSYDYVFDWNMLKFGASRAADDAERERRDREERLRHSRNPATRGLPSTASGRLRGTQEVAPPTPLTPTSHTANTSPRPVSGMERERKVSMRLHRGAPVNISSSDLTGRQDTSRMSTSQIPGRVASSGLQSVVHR
Serine/threonine-protein kinase Chk2, sequence (O96017 whole entry): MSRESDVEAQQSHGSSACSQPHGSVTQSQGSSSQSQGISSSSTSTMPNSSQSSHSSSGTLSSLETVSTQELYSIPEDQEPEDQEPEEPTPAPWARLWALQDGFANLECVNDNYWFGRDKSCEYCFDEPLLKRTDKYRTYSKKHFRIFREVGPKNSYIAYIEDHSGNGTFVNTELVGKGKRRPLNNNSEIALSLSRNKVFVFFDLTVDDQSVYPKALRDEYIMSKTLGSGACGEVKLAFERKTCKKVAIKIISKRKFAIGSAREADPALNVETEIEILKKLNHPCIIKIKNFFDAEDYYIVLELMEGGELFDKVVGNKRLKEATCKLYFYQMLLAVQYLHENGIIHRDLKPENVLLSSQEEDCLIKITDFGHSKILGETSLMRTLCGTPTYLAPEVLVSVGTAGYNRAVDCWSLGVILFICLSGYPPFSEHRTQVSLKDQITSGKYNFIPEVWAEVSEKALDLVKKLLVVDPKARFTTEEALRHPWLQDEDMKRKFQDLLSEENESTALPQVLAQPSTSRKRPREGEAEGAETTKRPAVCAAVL
Serine/threonine-protein kinase pim-2, sequence (Q9P1W9 whole entry): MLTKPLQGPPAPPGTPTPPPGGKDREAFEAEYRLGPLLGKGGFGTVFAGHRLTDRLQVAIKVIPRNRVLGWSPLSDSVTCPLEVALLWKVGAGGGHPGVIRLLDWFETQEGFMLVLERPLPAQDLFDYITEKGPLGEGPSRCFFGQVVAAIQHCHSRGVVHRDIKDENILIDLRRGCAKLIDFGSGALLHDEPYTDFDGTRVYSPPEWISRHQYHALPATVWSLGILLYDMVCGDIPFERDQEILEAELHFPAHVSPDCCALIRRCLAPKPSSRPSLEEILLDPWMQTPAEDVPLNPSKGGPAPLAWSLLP
Mitogen-activated protein kinase 1, sequence (P28482 whole entry): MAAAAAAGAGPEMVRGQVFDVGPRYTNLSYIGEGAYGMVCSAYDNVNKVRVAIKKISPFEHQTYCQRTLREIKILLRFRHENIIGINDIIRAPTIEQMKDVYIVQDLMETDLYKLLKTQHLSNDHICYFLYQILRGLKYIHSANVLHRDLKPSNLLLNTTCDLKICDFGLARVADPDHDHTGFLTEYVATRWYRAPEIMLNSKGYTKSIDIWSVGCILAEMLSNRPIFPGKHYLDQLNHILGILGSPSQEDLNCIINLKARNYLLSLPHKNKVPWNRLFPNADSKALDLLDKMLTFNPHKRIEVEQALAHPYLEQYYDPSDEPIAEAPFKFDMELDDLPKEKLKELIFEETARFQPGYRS
Serine/threonine-protein kinase Sgk1, sequence (O00141 whole entry): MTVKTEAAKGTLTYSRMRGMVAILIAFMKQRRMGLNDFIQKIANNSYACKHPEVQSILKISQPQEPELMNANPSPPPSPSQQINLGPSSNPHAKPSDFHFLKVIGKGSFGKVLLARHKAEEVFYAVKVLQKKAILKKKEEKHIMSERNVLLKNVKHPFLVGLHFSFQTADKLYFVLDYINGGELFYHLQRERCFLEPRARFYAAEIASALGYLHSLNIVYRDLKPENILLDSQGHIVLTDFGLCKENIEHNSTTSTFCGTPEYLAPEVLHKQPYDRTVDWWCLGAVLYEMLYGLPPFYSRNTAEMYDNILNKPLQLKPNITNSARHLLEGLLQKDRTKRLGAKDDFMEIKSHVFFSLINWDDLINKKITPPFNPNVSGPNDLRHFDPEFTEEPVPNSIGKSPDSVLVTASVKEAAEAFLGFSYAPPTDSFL

SMILES | IC50 [1] [µM] | IC50 [2] [µM] | IC50 [3] [µM] | IC50 [4] [µM] | IC50 [5] [µM] | IC50 [6] [µM] | IC50 [7] [µM] | IC50 [8] [µM] | IC50 [9] [µM] | IC50 [10] [µM] | IC50 [11] [µM] | IC50 [12] [µM] | IC50 [13] [µM] | IC50 [14] [µM] | IC50 [15] [µM] | solubility [16] [µM] | half-life [17] [min] | further results
O=C(c1cc2cc(F)ccc2[nH]1)N1C[C@]2(CCN(C3CCCNC3)C2)c2ccccc21 (stereo not given in full) | > 30 | > 30 | > 30 | > 30 | > 30 | > 30 | > 30 | > 30 | > 30 | > 30 | > 30 | > 30 | > 30 | 6.93 |  |  |  | 
C[C@@H]1CCC(N2CC[C@]3(CN(C(=O)c4cc5ccccc5[nH]4)c4ccccc43)C2)CN1 (stereo not given in full) | > 30 | > 30 | > 30 | > 30 | > 30 | > 30 | > 30 | > 30 | > 30 | > 30 | > 30 | > 30 | > 30 | 2.34 | 6.61 |  |  | 
O=C(c1cc2ccc(F)cc2[nH]1)N1C[C@]2(CCN(C3CCNC3)C2)c2ccccc21 (stereo not given in full) | > 30 | > 30 | > 30 | > 30 | > 30 | > 30 | > 30 | > 30 | > 30 | > 30 | > 30 | > 30 |  | 2.44 | 11 | 7.8 (≈ 3.16 µg/mL) | 52 | half-life [18]: 240 min
C[C@@H]1CCC(N2CC[C@]3(CN(C(=O)c4cc5ccc(F)cc5[nH]4)c4ccccc43)C2)CN1 (stereo not given in full) | > 30 | > 30 | > 30 | > 30 | > 30 |  | > 30 | > 30 | > 30 | > 30 | 22.7 | 28.6 |  | 0.97 | 1.73 | 11.7 (≈ 5.06 µg/mL) | 44 | IC50 [19]: > 30 µM; IC50 [20]: > 30 µM; IC50 [21]: > 30 µM; IC50 [22]: 21.9 µM
